Assay results as given in ChEMBL document CHEMBL1150091, “Cytotoxic compounds from a two-sponge association” (J Nat Prod, 1995).
In brackets after ≈: the same amount, converted by molar mass. Activity calls are given as the source filed them. The calls are words filed in the database; no cut-off is given here.

Assays:
Mus musculus = assay: (§1) Toxicity in ip dosed mouse; format: organism-based; conditions: in vivo
[1] = Toxicity in Artemia salina; format: organism-based; conditions: in vivo
A549 = assay: Cytotoxicity against human A549 cells; format: functional; conditions: read-out: LC50 (the source's name)
P388 = assay: Cytotoxicity against mouse P388 cells; format: functional; conditions: read-out: LC50 (the source's name)
Rattus norvegicus = species: Rattus norvegicus; assay: Inhibition of NADH dehydrogenase and oxidase activity of electron transport protein complex 1 in rat […] assessed as blockade of reduction-oxidation process; format: cell membranes
Nucleic Acid = assay: Induction of strand scission activity in bacteriophage X174RF1 DNA infected in Escherichia coli; format: nucleic-acid assay; conditions: unidentified phage
EKVX = assay: Cytotoxicity against human EKVX cells; format: functional; conditions: read-out: LC50 (the source's name)
HOP-62 = assay: Cytotoxicity against human HOP62 cells; format: functional; conditions: read-out: LC50 (the source's name)
HOP-92 = assay: Cytotoxicity against human HOP92 cells; format: functional; conditions: read-out: LC50 (the source's name)
COLO 205 = assay: Cytotoxicity against human COLO205 cells; format: functional; conditions: read-out: LC50 (the source's name)
HCT-116 = assay: Cytotoxicity against human HCT116 cells; format: functional; conditions: read-out: LC50 (the source's name)
SF-268 = assay: Cytotoxicity against human SF268 cells; format: functional; conditions: read-out: LC50 (the source's name)
SF-295 = assay: Cytotoxicity against human SF295 cells; format: functional; conditions: read-out: LC50 (the source's name)
Malme-3M = assay: Cytotoxicity against human MALME-3M cells; format: functional; conditions: read-out: LC50 (the source's name)
M14 = assay: Cytotoxicity against human M14 cells; format: functional; conditions: read-out: LC50 (the source's name)
SK-MEL-28 = assay: Cytotoxicity against human SK-MEL-28 cells; format: functional; conditions: read-out: LC50 (the source's name)
SK-MEL-5 = assay: Cytotoxicity against human SK-MEL-5 cells; format: functional; conditions: read-out: LC50 (the source's name)
IGROV-1 = assay: Cytotoxicity against human IGROV1 cells; format: functional; conditions: read-out: LC50 (the source's name)
OVCAR-3 = assay: Cytotoxicity against human OVCAR-3 cells; format: functional; conditions: read-out: LC50 (the source's name)
A498 = assay: Cytotoxicity against human A498 cells; format: functional; conditions: read-out: LC50 (the source's name)
CAKI-1 = assay: Cytotoxicity against human Caki1 cells; format: functional; conditions: read-out: LC50 (the source's name)
RXF 393 = assay: Cytotoxicity against human […] cells; format: functional; conditions: read-out: LC50 (the source's name)
TK-10 = assay: Cytotoxicity against human TK10 cells; format: functional; conditions: read-out: LC50 (the source's name)
UO-31 = assay: Cytotoxicity against human UO31 cells; format: functional; conditions: read-out: LC50 (the source's name)
[2] = Cytotoxicity against human Hs 578T cells; format: functional; conditions: read-out: LC50 (the source's name)
BT-549 = assay: Cytotoxicity against human BT549 cells; format: functional; conditions: read-out: LC50 (the source's name)
CCRF-CEM = assay: Cytotoxicity against human CCRF-CEM cells; format: functional; conditions: read-out: LC50 (the source's name)
HL-60(TB) = assay: Cytotoxicity against human HL-60(TB) cells; format: functional; conditions: read-out: LC50 (the source's name)
K562 = assay: Cytotoxicity against human K562 cells; format: functional; conditions: read-out: LC50 (the source's name)
MOLT-4 = assay: Cytotoxicity against human MOLT4 cells; format: functional; conditions: read-out: LC50 (the source's name)
[3] = Cytotoxicity against human […] cells; format: functional; conditions: read-out: LC50 (the source's name)
SR = assay: Cytotoxicity against human SR cells; format: functional; conditions: read-out: LC50 (the source's name)
NCI-H226 = assay: Cytotoxicity against human NCI-H226 cells; format: functional; conditions: read-out: LC50 (the source's name)
NCI-H23 = assay: Cytotoxicity against human NCI-H23 cells; format: functional; conditions: read-out: LC50 (the source's name)
NCI-H322M = assay: Cytotoxicity against human NCI-H322M cells; format: functional; conditions: read-out: LC50 (the source's name)
NCI-H460 = assay: Cytotoxicity against human NCI-H460 cells; format: functional; conditions: read-out: LC50 (the source's name)
NCI-H522 = assay: Cytotoxicity against human NCI-H522 cells; format: functional; conditions: read-out: LC50 (the source's name)
HCC 2998 = assay: Cytotoxicity against human HCC2998 cells; format: functional; conditions: read-out: LC50 (the source's name)
HCT-15 = assay: Cytotoxicity against human HCT15 cells; format: functional; conditions: read-out: LC50 (the source's name)
HT-29 = assay: Cytotoxicity against human HT-29 cells; format: functional; conditions: read-out: LC50 (the source's name)
KM12 = assay: Cytotoxicity against human KM12 cells; format: functional; conditions: read-out: LC50 (the source's name)
SW-620 = assay: Cytotoxicity against human SW620 cells; format: functional; conditions: read-out: LC50 (the source's name)
SF-539 = assay: Cytotoxicity against human SF539 cells; format: functional; conditions: read-out: LC50 (the source's name)
SNB-19 = assay: Cytotoxicity against human SNB19 cells; format: functional; conditions: read-out: LC50 (the source's name)
U-251 = assay: Cytotoxicity against human U251 cells; format: functional; conditions: read-out: LC50 (the source's name)
LOX IMVI = assay: Cytotoxicity against human LOXIMVI cells; format: functional; conditions: read-out: LC50 (the source's name)
SK-MEL-2 = assay: Cytotoxicity against human SK-MEL-2 cells; format: functional; conditions: read-out: LC50 (the source's name)
UACC-257 = assay: Cytotoxicity against human UACC257 cells; format: functional; conditions: read-out: LC50 (the source's name)
UACC-62 = assay: Cytotoxicity against human UACC62 cells; format: functional; conditions: read-out: LC50 (the source's name)
OVCAR-4 = assay: Cytotoxicity against human OVCAR4 cells; format: functional; conditions: read-out: LC50 (the source's name)
OVCAR-5 = assay: Cytotoxicity against human OVCAR5 cells; format: functional; conditions: read-out: LC50 (the source's name)
OVCAR-8 = assay: Cytotoxicity against human OVCAR8 cells; format: functional; conditions: read-out: LC50 (the source's name)
SK-OV-3 = assay: Cytotoxicity against human SKOV3 cells; format: functional; conditions: read-out: LC50 (the source's name)
786-0 = assay: Cytotoxicity against human 786-0 cells; format: functional; conditions: read-out: LC50 (the source's name)
ACHN = assay: Cytotoxicity against human ACHN cells; format: functional; conditions: read-out: LC50 (the source's name)
PC-3 = assay: Cytotoxicity against human PC3 cells; format: functional; conditions: read-out: LC50 (the source's name)
DU-145 = assay: Cytotoxicity against human DU145 cells; format: functional; conditions: read-out: LC50 (the source's name)
MCF7 = assay: Cytotoxicity against human MCF7 cells; format: functional; conditions: read-out: LC50 (the source's name)
[4] = Cytotoxicity against human MCF7/ADR cells; format: functional; conditions: NCI/ADR-RES, read-out: LC50 (the source's name)
MDA-MB-231 = assay: Cytotoxicity against human MDA-MB-231 cells; format: functional; conditions: read-out: LC50 (the source's name)
MDA-MB-435 = assay: Cytotoxicity against human MDA-MB-435 cells; format: functional; conditions: read-out: LC50 (the source's name)
MDA-N = assay: Cytotoxicity against human MDA-N cells; format: functional; conditions: read-out: LC50 (the source's name)
T47D = assay: Cytotoxicity against human T47D cells; format: functional; conditions: read-out: LC50 (the source's name)
[5] = as §1; format: organism-based; conditions: in vivo

COc1cccc2c1C(=O)c1c(O)c3c(c(O)c1C2=O)C[C@@](O)(C(=O)CO)C[C@@H]3O[C@H]1C[C@H](N)[C@H](O)[C@H](C)O1 [DOXORUBICIN]
LD50 (Mus musculus): 13 µg/mL

O=C(NCCSSCCNC(=O)/C(Cc1ccc(O)c(Br)c1)=N/O)/C(Cc1ccc(O)c(Br)c1)=N/O [PSAMMAPLIN A]
LC50 [1]: 4 mg/L (≈ 6.02 µM)
CC50 (A549): 6.43 mg/L
CC50 (P388): 0.64 mg/L (≈ 0.963 µM)

CC1=C/[C@H](C)C[C@@]2(C)CC[C@@H](O2)[C@@]23CC[C@@](C)(C[C@@H](O2)[C@H]2O[C@](C)(CC2=O)[C@@H](O)[C@@H]2CC[C@@]4(CCC[C@H](O4)[C@@H](C)C(=O)O[C@@H]4C[C@@H]([C@@]5(O)OCC[C@@H](C)[C@H]5O)O[C@@H]4\C=C\1)O2)O3
Activity (Rattus norvegicus): inactive
Activity (Nucleic Acid): inactive

O=c1[nH]cc(F)c(=O)[nH]1 [FLUOROURACIL]
CC50 (P388): 0.2 mg/L (≈ 1.54 µM)

CC1=C\[C@H](C)C[C@@]2(C)CC[C@@H](O2)[C@@]23CC[C@@](C)(C[C@@H](O2)[C@H]2O[C@](C)(CC2=O)[C@@H](O)[C@@H]2CC[C@@]4(CCC[C@H](O4)[C@@H](C)C(=O)O[C@@H]4C[C@@H]([C@@]5(O)OCC[C@@H](C)[C@H]5O)O[C@@H]4\C=C\1)O2)O3 [PECTENOTOXIN II]
LC50 [1]: < 0.1 mg/L
CC50 (EKVX): 0.062 µM
CC50 (HOP-62): 0.0251 µM
CC50 (HOP-92): 0.807 µM
CC50 (COLO 205): 0.00782 µM
CC50 (HCT-116): 0.0733 µM
CC50 (SF-268): 0.154 µM
CC50 (SF-295): 0.0777 µM
CC50 (Malme-3M): 0.123 µM
CC50 (M14): 4.73 µM
CC50 (SK-MEL-28): 0.0423 µM
CC50 (SK-MEL-5): 0.0552 µM
CC50 (IGROV-1): 0.0673 µM
CC50 (OVCAR-3): 0.0616 µM
CC50 (A498): 0.0341 µM
CC50 (CAKI-1): 0.0191 µM
CC50 (RXF 393): 0.03 µM
CC50 (TK-10): 0.0725 µM
CC50 (UO-31): 0.0563 µM
CC50 [2]: 0.0779 µM
CC50 (BT-549): 0.0627 µM
CC50 (CCRF-CEM): > 10 µM
CC50 (HL-60(TB)): > 10 µM
CC50 (K562): > 10 µM
CC50 (MOLT-4): > 10 µM
CC50 [3]: > 10 µM
CC50 (SR): > 10 µM
CC50 (A549): > 10 µM
CC50 (NCI-H226): > 10 µM
CC50 (NCI-H23): > 10 µM
CC50 (NCI-H322M): > 10 µM
CC50 (NCI-H460): > 10 µM
CC50 (NCI-H522): > 10 µM
CC50 (HCC 2998): > 10 µM
CC50 (HCT-15): > 10 µM
CC50 (HT-29): > 10 µM
CC50 (KM12): > 10 µM
CC50 (SW-620): > 10 µM
CC50 (SF-539): > 10 µM
CC50 (SNB-19): > 10 µM
CC50 (U-251): > 10 µM
CC50 (LOX IMVI): > 10 µM
CC50 (SK-MEL-2): > 10 µM
CC50 (UACC-257): > 10 µM
CC50 (UACC-62): > 10 µM
CC50 (OVCAR-4): > 10 µM
CC50 (OVCAR-5): > 10 µM
CC50 (OVCAR-8): > 10 µM
CC50 (SK-OV-3): > 10 µM
CC50 (786-0): > 10 µM
CC50 (ACHN): > 10 µM
CC50 (PC-3): > 10 µM
CC50 (DU-145): > 10 µM
CC50 (MCF7): > 10 µM
CC50 [4]: > 10 µM
CC50 (MDA-MB-231): > 10 µM
CC50 (MDA-MB-435): > 10 µM
CC50 (MDA-N): > 10 µM
CC50 (T47D): > 10 µM
LD50 [5]: 0.26 mg/kg
